This is an account of results in PMC5788404 (Journal of Medicinal Chemistry, 2017).

Entries after “also recorded” stand apart in the source; their conditions may differ.

In data set [1] the target is T1, VBC protein (VHL:ElonginB:ElonginC protein complex) (Homo sapiens, UniProt P40337).
T1 construct: made in house
It is filed as binding. Particulars: based on FP results, GE = ΔpKd/ΔHA (heavy atoms).

Data set [2] can be described thus: Intrinsic clearance (Cli) in liver microsomes. Conditions: female CD1 mouse liver microsomes, 0.5 μM compound. It is filed as in vitro ADME.
Data set [3] is described as follows: Intracellular drug concentration (accumulation in HeLa cells). Particulars: human; HeLa cell lysate, equilibrium dialysis; read-out: Fraction unbound (fu). It counts as in vitro ADME, Human.
Data set [4] has as its system HeLa cells. The description is as above. It is filed as in vitro ADME, Human. Particulars: HeLa cells, 50 μM, 2 h.
The next data set deals with HIF-1α. In words: cells. Particulars: Homo sapiens, HeLa, 2 h, read-out: HIF-1α Stabilization (Protein % levels), HeLa cells, 50 μM inhibitor, 2 h, Western blot, normalized to level observed with 1.
Data set [5] deals with T2, VBC complex (VHL:ElonginB:ElonginC) (Homo sapiens, UniProt P40337).
T2 construct: made in house
T2 sequence (Q15369 17-112): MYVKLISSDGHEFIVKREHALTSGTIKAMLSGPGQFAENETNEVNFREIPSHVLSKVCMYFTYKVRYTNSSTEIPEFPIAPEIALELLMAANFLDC
T2 sequence (P40337 54-213): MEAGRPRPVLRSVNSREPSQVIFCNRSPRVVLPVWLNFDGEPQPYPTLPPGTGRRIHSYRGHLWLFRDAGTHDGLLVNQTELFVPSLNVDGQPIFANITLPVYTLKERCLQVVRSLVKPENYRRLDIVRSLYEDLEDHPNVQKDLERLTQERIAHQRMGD
T2 sequence (Q15370 1-104, further chain): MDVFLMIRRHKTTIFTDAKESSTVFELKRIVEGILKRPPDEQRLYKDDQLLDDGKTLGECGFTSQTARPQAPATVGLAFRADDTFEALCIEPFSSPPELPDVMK
It counts as binding. Conditions: for LE: LE = −RT ln Kd/NHA; for LE / LLE: on the basis of ITC results; for LLE: LLE = pKd–Log D.

A short description of data set [6]: Parallel Artificial Membrane Permeability Assay (PAMPA). It counts as in vitro ADME. Particulars: pH 7.4, as printed in text and footnote.
The target of another data set is T3, immobilized VBC protein (Homo sapiens, UniProt P40337).
T3 construct: made in house
T3 sequence (Q15369 17-112): as the sequence (Q15369 17-112) above
T3 sequence (Q15370 1-104, further chain): as the sequence (Q15370 1-104, further chain) above
T3 sequence (P40337 54-213): as the sequence (P40337 54-213) above
In words: biochemical. It is filed as binding. Conditions: for Dissociative t1/2: t1/2 = ln2/koff; for kon: SPR.

Data set [7] relates to HeLa cells. In words: Colony formation assay. It is filed as cell-based, Human. Conditions: 150 μM.
For data set [8], the system named is HeLa cells. Kind of data set: Proliferation assay. It counts as cell-based, Human. Conditions: 150 μM, relative to DMSO vehicle.

T1 sequence (P40337 54-213): as above
T1 sequence (Q15369 17-112, further chain): as the sequence (Q15369 17-112) above
T1 sequence (Q15370 1-104, further chain): as the sequence (Q15370 1-104, further chain) above

With `Cc1ncsc1-c1ccc(CNC(=O)[C@@H]2C[C@@H](O)CN2C(=O)[C@@H](NC(=O)C2(F)CC2)C(C)O)cc1` (stereo in doubt) [Inhibitor 14, (2S,4R)-1-((2S,3S)-2-(1-Fluorocyclopropanecarboxamido)-3-hydroxybutanoyl)-4-hydroxy-N-(4-(4-methylthiazol-5-yl)benzyl)pyrrolidine-2-carboxamide], the “GE (group efficiency)” value in data set [1] is given as “–0.19”.
Turning to `CC(=O)N[C@H](C(=O)N1C[C@H](O)C[C@H]1C(=O)NCc1ccc(-c2scnc2C)cc1)C(C)(C)C` [Inhibitor 1], the “Microsomal stability (intrinsic clearance)” value (shortened to “Microsomal stability”) in data set [2] is 0.7 mL/min/g. Also, the unbound share (fraction unbound) in data set [3] turned out to be 0.0016. Further, the “Compound associated with cells” value with HeLa cells [4] is 463.8 µM. In the data set on HIF-1α, the Emax at 50 µM stood at 100 ± 7%.
As for `Cc1ncsc1-c1ccc(CNC(=O)[C@@H]2C[C@@H](O)CN2C(=O)[C@@H](NC(=O)OC(C)(C)C)C(C)(C)C)cc1` [Inhibitor 2], the “GE (group efficiency)” value in data set [1] is reported as −0.41.
Regarding `Cc1ncsc1-c1ccc(CNC(=O)[C@@H]2C[C@@H](O)CN2C(=O)[C@@H](NC(=O)CO)C(C)(C)C)cc1` [Inhibitor 3, (2S,4R)-4-Hydroxy-1-((S)-2-(2-hydroxyacetamido)-3,3-dimethylbutanoyl)-N-(4-(4-methylthiazol-5-yl)benzyl)pyrrolidine-2-carboxamide], the “GE (group efficiency)” value in data set [1] is recorded as −0.11. Besides, in data set [5], the LE is given as 0.27 kcal × mol^-1 × NHA^-1 and the LLE was found to be 6.28 kcal × mol^-1 × NHA^-1.
For `Cc1ncsc1-c1ccc(CNC(=O)[C@@H]2C[C@@H](O)CN2C(=O)[C@@H](NC(=O)CC(C)(C)C)C(C)(C)C)cc1` [Inhibitor 5, (2S,4R)-1-((S)-2-(3,3-Dimethylbutanamido)-3,3-dimethylbutanoyl)-4-hydroxy-N-(4-(4-methylthiazol-5-yl)benzyl)pyrrolidine-2-carboxamide], the “GE (group efficiency)” value in data set [1] is −0.12.
In the case of `Cc1ncsc1-c1ccc(CNC(=O)[C@@H]2C[C@@H](O)CN2C(=O)[C@@H](NC(=O)C2CC2)C(C)(C)C)cc1` [Inhibitor 6, (2S,4R)-1-((S)-2-(Cyclopropanecarboxamido)-3,3-dimethylbutanoyl)-4-hydroxy-N-(4-(4-methylthiazol-5-yl)benzyl)pyrrolidine-2-carboxamide], the “GE (group efficiency)” value in [1] is listed as −0.02. Further, in [5], the LE is recorded as 0.26 kcal × mol^-1 × NHA^-1 and the LLE worked out at 5.68 kcal × mol^-1 × NHA^-1.
In the case of `Cc1ncsc1-c1ccc(CNC(=O)[C@@H]2C[C@@H](O)CN2C(=O)[C@@H](NC(=O)C(F)(F)F)C(C)(C)C)cc1` [Inhibitor 7, (2S,4R)-1-((S)-3,3-Dimethyl-2-(2,2,2-trifluoroacetamido)butanoyl)-4-hydroxy-N-(4-(4-methylthiazol-5-yl)benzyl)pyrrolidine-2-carboxamide], the “GE (group efficiency)” value in [1] is on record as −0.08.
For the molecule `Cc1ncsc1-c1ccc(CNC(=O)[C@@H]2C[C@@H](O)CN2C(=O)[C@@H](NC(=O)C(Cl)(Cl)Cl)C(C)(C)C)cc1` [Inhibitor 8, (2S,4R)-1-((S)-3,3-Dimethyl-2-(2,2,2-trichloroacetamido)butanoyl)-4-hydroxy-N-(4-(4-methylthiazol-5-yl)benzyl)pyrrolidine-2-carboxamide], the “GE (group efficiency)” value in [1] is −0.04.
Consider `Cc1ncsc1-c1ccc(CNC(=O)[C@@H]2C[C@@H](O)CN2C(=O)[C@@H](NC(=O)C(C)(C)F)C(C)(C)C)cc1` [Inhibitor 9, (2S,4R)-1-((S)-2-(2-Fluoro-2-methylpropanamido)-3,3-dimethylbutanoyl)-4-hydroxy-N-(4-(4-methylthiazol-5-yl)benzyl)pyrrolidine-2-carboxamide], for which, in data set [1], the “GE (group efficiency)” value is recorded as −0.24.
With `Cc1ncsc1-c1ccc(CNC(=O)[C@@H]2C[C@@H](O)CN2C(=O)[C@@H](NC(=O)C2(F)CC2)C(C)(C)C)cc1` [Inhibitor 10, (2S,4R)-1-((S)-2-(1-Fluorocyclopropanecarboxamido)-3,3-dimethylbutanoyl)-4-hydroxy-N-(4-(4-methylthiazol-5-yl)benzyl)pyrrolidine-2-carboxamide], the Papp at 5 h, 10 μM in data set [6] was 2.71 ×10⁻⁶ cm/s. Besides, the “Dissociative t1/2” value at immobilized VBC protein (10°C (first value of cell)) stood at 11.94 ± 0.08 s. Moreover, the “Dissociative t1/2” value at immobilized VBC protein (20°C (second value of cell)) came out at 7.073 ± 0.007 s. Also, the “Microsomal stability” value in [2] was 2.9 mL/min/g. The “toxicity in colony formation assay” value in the data set on HeLa cells [7] was “a degree of cytotoxicity; also recorded: toxicity”. The “toxicity in cell-proliferation assay” value with HeLa cells [8] was “notably decreased cell proliferation; also recorded: toxicity”. Also, the fraction unbound in [3] was found to be 0.0002. In the data set with HeLa cells [4], the “Compound associated with cells” value was found to be 383.6 µM and the “Final free compound concentration in cells” value amounted to 0.071 µM.
On to `Cc1ncsc1-c1ccc(CNC(=O)[C@@H]2C[C@@H](O)CN2C(=O)[C@@H](N2CCCC2=O)C(C)(C)C)cc1` [Inhibitor 12, (2S,4R)-1-((S)-3,3-Dimethyl-2-(2-oxopyrrolidin-1-yl)butanoyl)-4-hydroxy-N-(4-(4-methylthiazol-5-yl)benzyl)pyrrolidine-2-carboxamide], for which the “GE (group efficiency)” value in data set [1] was −0.48.
In [6], `Cc1ncsc1-c1ccc(CNC(=O)[C@@H]2C[C@@H](O)CN2C(=O)[C@@H](NC(=O)C2(C#N)CC2)C(C)(C)C)cc1` [Inhibitor 15, (2S,4R)-1-((S)-2-(1-Cyanocyclopropanecarboxamido)-3,3-dimethylbutanoyl)-4-hydroxy-N-(4-(4-methylthiazol-5-yl)benzyl)pyrrolidine-2-carboxamide] returned an apparent permeability coefficient (Papp) at 5 h, 10 μM of 1.94 ×10⁻⁶ cm/s. For the same molecule, in data set [2], the “Microsomal stability” value amounted to 3.1 mL/min/g. For the same molecule, the “toxicity in colony formation assay” value in the data set on HeLa cells [7] is given as “no toxicity”. The unbound share (fraction unbound) in data set [3] came out at 0.0007. Further, the “Compound associated with cells” value in the data set on HeLa cells [4] was 150.0 µM.
Regarding `CC(=O)C1(C(=O)N[C@H](C(=O)N2C[C@H](O)C[C@H]2C(=O)NCc2ccc(-c3scnc3C)cc2)C(C)(C)C)CC1` [Inhibitor 16, (2S,4R)-1-((S)-2-(1-Acetylcyclopropanecarboxamido)-3,3-dimethylbutanoyl)-4-hydroxy-N-(4-(4-methylthiazol-5-yl)benzyl)pyrrolidine-2-carboxamide], in data set [1], the “GE (group efficiency)” value was “–0.01”. In data set [5], this molecule displayed an LE of 0.25 kcal × mol^-1 × NHA^-1 and an LLE of 5.63 kcal × mol^-1 × NHA^-1. This molecule showed a Papp at 5 h, 10 μM in data set [6] of 1.5 ×10⁻⁶ cm/s. Moreover, the “Dissociative t1/2” value on immobilized VBC protein (10°C (first value of cell)) stood at 10.04 ± 0.01 s. Besides, the “Dissociative t1/2” value at immobilized VBC protein (20°C (second value of cell)) amounted to 4.101 ± 0.007 s. The molecule further came in with a kon at immobilized VBC protein (10°C) of 600000 M⁻¹ s⁻¹. This molecule showed a kon at immobilized VBC protein (20°C) of 820000 M⁻¹ s⁻¹. For the same molecule, the “Microsomal stability” value in [2] turned out to be 2.5 mL/min/g. Besides, the free fraction (fraction unbound) in data set [3] came to 0.0008. Further, in the data set on HeLa cells [4], the “Compound associated with cells” value was determined as 100.0 µM and the “Final free compound concentration in cells” value is 0.046 µM.
`CC(=O)NC1(C(=O)N[C@H](C(=O)N2C[C@H](O)C[C@H]2C(=O)NCc2ccc(-c3scnc3C)cc2)C(C)(C)C)CC1` [Inhibitor 17, (2S,4R)-1-((S)-2-(1-Acetamidocyclopropanecarboxamido)-3,3-dimethylbutanoyl)-4-hydroxy-N-(4-(4-methylthiazol-5-yl)benzyl)pyrrolidine-2-carboxamide]: the “GE (group efficiency)” value in [1] is recorded as “–0.05”. Besides, in data set [5], the LE was determined as 0.24 kcal × mol^-1 × NHA^-1 and the LLE is 6.28 kcal × mol^-1 × NHA^-1.
For the molecule `Cc1ncsc1-c1ccc(CNC(=O)[C@@H]2C[C@@H](O)CN2C(=O)[C@@H](NC(=O)C2CCC2)C(C)(C)C)cc1` [Inhibitor 18, (2S,4R)-1-((S)-2-(Cyclobutanecarboxamido)-3,3-dimethylbutanoyl)-4-hydroxy-N-(4-(4-methylthiazol-5-yl)benzyl)pyrrolidine-2-carboxamide], the “GE (group efficiency)” value in data set [1] is on record as “–0.07”. In data set [5], this molecule displayed an LE of 0.25 kcal × mol^-1 × NHA^-1 and an LLE of 5.38 kcal × mol^-1 × NHA^-1. In addition, the “Dissociative t1/2” value on immobilized VBC protein (10°C (first value of cell)) was 4.95 ± 0.01 s. In addition, the “Dissociative t1/2” value at immobilized VBC protein (20°C (second value of cell)) stood at 2.71 ± 0.01 s. The molecule further came in with an association rate constant (kon) on immobilized VBC protein (10°C) of 517000 M⁻¹ s⁻¹. The molecule also had an on-rate (kon) on immobilized VBC protein (20°C) of 1.1e+06 M⁻¹ s⁻¹. In addition, the “Microsomal stability” value in data set [2] worked out at 3.0 mL/min/g. Also, the unbound share (fraction unbound) in data set [3] was found to be 0.0008. Besides, in the data set with HeLa cells [4], the “Compound associated with cells” value came to 204.0 µM and the “Final free compound concentration in cells” value was determined as 0.093 µM.
For the molecule `COCCc1ccc(OCC(O)CNC(C)C)cc1` (centres unmarked) [Metoprolol, reference compound], the fraction unbound in data set [3] worked out at 0.005.
On to `Cc1ncsc1-c1ccc(CNC(=O)[C@@H]2C[C@H](O)CN2C(=O)[C@@H](NC(=O)C2(F)CC2)C(C)(C)C)cc1` [cis-10, (2S,4S)-1-((S)-2-(1-Fluorocyclopropanecarboxamido)-3,3-dimethylbutanoyl)-4-hydroxy-N-(4-(4-methylthiazol-5-yl)benzyl)pyrrolidine-2-carboxamide], for which the “binding to VHL” value in data set [5] (ITC and FP binding curves, Figure 2) was “no longer binds to VHL”. Also, the “toxicity in colony formation assay” value in the data set on HeLa cells [7] was “a degree of cytotoxicity”. The “toxicity in cell-proliferation assay” value in the data set with HeLa cells [8] was “a degree of cytotoxicity”.
As to `CC(C)NCC(O)COc1cccc2ccccc12` (centres unmarked) [propanolol, reference compound], the “Compound associated with cells” value in the data set with HeLa cells [4] was 2679.0 µM.
